The values below come from patent US20040106802A1, “Novel compounds and therapeutic uses thereof” (TORRENT PHARMACEUTICALS LTD., priority 2002, published 2004).

As usually defined, the melting point is the temperature of the solid-liquid transition. One may read the IC50 as the concentration needed to halve the response being measured.

One data set deals with T1, Porcine DPP-IV (Sus scrofa, UniProt P22411).
T1 construct: purchased Sigma-Aldrich Germany
Description: Assay of DPP-IV enzyme inhibitory activity (spectrophotometric, Gly-Pro-pNA cleavage). The format is biochemical. The conditions noted are these: Porcine DPP-IV, Gly-Pro-pNA substrate, 30° C.; mean ± SD of three experiments except compound Nos. 133 & 139; read-out: IC50 (μM) Mean ± SD, inhibitory activity on DPP-IV enzyme activity.

The test system of the next data set is zucker fatty rats. The conditions noted are these: cited from earlier work.
The test system of a further data set is DPP-IV. The conditions noted are these: in vivo; cited from earlier work.
For data set [1] the following is noted: in vivo; cited from earlier work.

T1 sequence (P22411 whole entry): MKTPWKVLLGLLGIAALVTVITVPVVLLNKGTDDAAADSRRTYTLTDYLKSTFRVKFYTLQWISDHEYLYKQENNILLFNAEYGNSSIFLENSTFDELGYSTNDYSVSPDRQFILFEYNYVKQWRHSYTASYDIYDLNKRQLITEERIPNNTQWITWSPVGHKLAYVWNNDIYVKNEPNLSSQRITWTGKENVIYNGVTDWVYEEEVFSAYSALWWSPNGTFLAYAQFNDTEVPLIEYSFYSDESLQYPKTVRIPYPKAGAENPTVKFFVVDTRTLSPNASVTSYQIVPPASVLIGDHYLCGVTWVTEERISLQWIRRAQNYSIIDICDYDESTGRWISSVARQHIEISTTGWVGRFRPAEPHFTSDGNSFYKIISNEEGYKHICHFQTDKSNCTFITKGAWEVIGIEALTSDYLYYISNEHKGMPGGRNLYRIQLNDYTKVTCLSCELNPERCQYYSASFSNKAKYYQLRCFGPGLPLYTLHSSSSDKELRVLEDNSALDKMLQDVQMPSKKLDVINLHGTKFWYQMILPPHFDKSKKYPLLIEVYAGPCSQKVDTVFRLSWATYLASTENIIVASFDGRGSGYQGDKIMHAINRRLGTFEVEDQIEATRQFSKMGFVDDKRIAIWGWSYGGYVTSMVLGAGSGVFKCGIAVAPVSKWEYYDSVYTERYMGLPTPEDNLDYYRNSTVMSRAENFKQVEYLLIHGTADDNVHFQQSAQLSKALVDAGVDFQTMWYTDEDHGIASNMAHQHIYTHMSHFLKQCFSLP

As for `CC(C)N(N)C(=O)N1CSCC1C#N.Cl` (centres unmarked), the melting point was 148 to 150 °C (dec.).

Take `Cl.N#CC1CCCN1C(=O)N(N)C1CCCCC1` (centres unmarked): the melting point is 160 to 162 °C (dec.).

With `Cl.N#CC1CSCN1C(=O)N(N)C1CCCCC1` (centres unmarked), the melting point is 166 to 168 °C (dec.).

Take `N#CC1CCCN1C(=O)C1CNCCN1.O=C(O)C(F)(F)F.O=C(O)C(F)(F)F` (centres unmarked) [Compound No. 1, 2-Cyano-1-(piperazine-2-yl)-carbonyl pyrrolidine bis-trifluoroacetate]: the melting point was 126 to 128 °C. Also, the concentration for half-maximal inhibition (IC50) at Porcine DPP-IV is 47.6 ± 2.72 µM.

`CC[C@H](C)[C@H](N)C(=O)N1CCSC1` [Isoleucine thiazolidide]: the “glucose tolerance (in words)” value with zucker fatty rats is “improved glucose tolerance”.

Regarding `N#Cc1ccc(NCCNCC(=O)N2CCC[C@H]2C#N)nc1` [NVP-DPP-728, 1-[-2-{(5-cyanopyridin-2-yl)amino}ethylamino]acetyl-2-cyano-(S)-pyrrolidine], in the data set with DPP-IV, the “insulin secretion and glucose tolerance (in words)” value is “improves insulin secretion and glucose tolerance”.

For the compound GLP-19-36, the “apparent half-life in the circulation” value in data set [1] is 4 to 5 min.
